Experimental data from US20250213547A1, “METHODS OF TREATING NEUROLOGICAL DISEASES” (priority 2022, published 2025).
≈ marks a conversion by molar mass, not a printed value. Read-outs that look alike come from different tables or passages of the source.

Assays:
[1] = Multiple rising dose study: safety (TEAEs) in healthy subjects over 14 days; format: in vivo, human
Method: Subjects were monitored during the study and a full review was conducted after each rising dose. Safety data monitoring included vitals, physical and visual examinations, electrocardiogram, BMI, and clinical laboratory tests. […] Percentages are rounded to one decimal place. A subject with two or more different adverse events (AE) within the same levels of the MedDRA term and treatment is counted only once at that level using the most related or severe incident. A TEAE is defined as an AE or SAE that occurs or gets worse after receiving the first dose of study drug and within 30 days after the last dose of study drug.

CH24H = target: T1, CH24H (Homo sapiens, UniProt Q9Y6A2); assay: PK/PD (PK/OE/24HC) turnover modeling; details: for BL / IC50 / IGAM / Imax / KOUT: ELEKTRA subjects; for BL: 24HC baseline
T1 construct: from tissue; host or cells: brain of living human trial subjects (in vivo)
T1 sequence (Q9Y6A2 whole entry): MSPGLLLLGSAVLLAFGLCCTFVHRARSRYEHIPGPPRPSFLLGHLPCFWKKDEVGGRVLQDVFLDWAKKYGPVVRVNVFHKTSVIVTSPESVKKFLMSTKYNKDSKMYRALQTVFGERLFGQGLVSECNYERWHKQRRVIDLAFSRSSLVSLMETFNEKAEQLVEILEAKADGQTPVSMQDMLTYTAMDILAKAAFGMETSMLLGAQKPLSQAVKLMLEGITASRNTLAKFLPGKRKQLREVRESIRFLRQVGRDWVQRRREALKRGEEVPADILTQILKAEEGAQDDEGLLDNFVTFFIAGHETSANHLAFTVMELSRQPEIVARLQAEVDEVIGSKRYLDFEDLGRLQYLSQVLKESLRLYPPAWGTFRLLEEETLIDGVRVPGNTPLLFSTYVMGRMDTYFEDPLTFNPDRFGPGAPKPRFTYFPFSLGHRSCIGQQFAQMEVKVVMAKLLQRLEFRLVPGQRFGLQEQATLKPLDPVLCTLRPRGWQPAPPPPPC
Text: Similar to the PK model, the PK/PD model was developed as a population mixed-effects model and incorporated the individual PK parameters from the final PK population model. A turnover model was used to characterize changes in plasma 24HC overtime. Plasma 24HC was considered to be at steady-state baseline (BL) before the start of treatment. […] PK/PD covariates were screened in a procedure similar to the PK covariates. In the final PK/PD model, two covariates, A1-AGLP and body weight affected baseline 24HC.
The PK/PD analysis dataset consisted of 2165 24HC observations from 3 phase I trials. Four subjects from the ELEKTRA study with large IC50 estimates were excluded from the dataset. Additionally, 42 individuals with large conditional weighted residuals were excluded from the dataset. The final dataset contained 2107 24HC observations from 248 subjects. Table 26 summarizes the modeling dataset with reference to example numbers, respective clinical trial ID, subject numbers, regimen, and number of observations and doses. Tables 27 and 28 summarize the categorical covariates used in PK/OE/24HC analysis from the entire dataset and the ELEKTRA study subset, respectively.
Tables 29 and 30 summarize the mean continuous variables used in the PK/OE/24HC covariate analysis from the entire PK/OE/24HC population studied and the ELEKTRA subset, respectively. In addition to the shared variables, the PK/PD dataset contained the individual final estimates of the population PK model parameters (IND_ALAG1, IND_KA, IND_CL, IND_V2, IND_Q, IND_V3, and IND_F1). Subjects without individual PK parameter estimates (e.g. subjects from the placebo arms) were assigned to the respective geometric mean of the estimated individual parameter values.
A turnover model was used to describe changes in 24HC concentration over time. […] The following formula estimates change in 24HC: […]
The indirect exposure effect (EFF) was estimated by an Imax model:
The effect-site concentration was implemented as a delayed equilibrium with the plasma/brain transit rate parameter (KPLBR):
The scaling parameter KPLBR was previously estimated in a competitive enzyme occupancy model derived from PET brain imaging data (NCT02497235, Table 19). Parameters derived from this base model were fixed at their previous final PK population estimates derived from example 12. However, no random effects could be estimated without enzyme occupancy data. FIG. 26 depicts the basic model structure in relation to observed and unobserved data. There was a strong growth-related increase in baseline 24HC levels, which was only observed in young subjects.
The following variables were screened by forward inclusion, backward exclusion F-tests: • Growth/maturity: Weight, BMI, and age • Protein binding: Albumin (ALB), A1-AGLP • Liver function: AST, ALT, GGT, and ALP • Kidney function: Creatinine clearance (CRCL), eGFR • Categorical variables: Asian, sex. Ethnicity, and disease type

plasma 24HC = assay: Healthy Japanese subjects, Part 1: plasma 24HC pharmacodynamics; format: in vivo, human; details: for AUEC24 of plasma 24HC / AUECt of plasma 24HC (time 0 to last sampling time point) / E24 of plasma 24HC (observed effect at 24 hours) / Emax of plasma 24HC (maximum drug-induced effect): mean (% CV); for Emax: Homo sapiens, read-out: % change from Baseline in Emax of plasma 24HC; for Emax / % change from Baseline in AUEC24 of plasma 24HC / % change from Baseline in E24 of plasma 24HC: mean; for Time to Emax of plasma 24HC: median (min-max)
Method: On Day 1 of each dose level, a single dose of TAK-935 or placebo was administered, and safety, PK and PD were evaluated.
Blood samples for PD analysis of plasma 24HC level were collected into blood collection tubes (vacutainer) containing the anticoagulant K2EDTA.
The PD assessments described below were performed at the time points stipulated in the schedule of procedures. The additional PD endpoints included the following PD parameters for plasma 24HC: […]

With `O=C(c1cccnc1-c1ccncc1)N1CCC(O)(Cc2ccccc2)CC1` [soticlestat] the “Deaths, number of subjects (%)” value ([1]; 100 mg QD, n = 6) was 0 subjects (%), the “Deaths, number of subjects (%)” value ([1]; 300 mg BID, n = 6) was 0 subjects (%) and the “Deaths, number of subjects (%)” value ([1]; 300 mg QD, n = 6) was 0 subjects (%). The “Deaths, number of subjects (%)” value ([1]; 400 mg QD, n = 6) was 0 subjects (%), the “Mild TEAEs, number of subjects (%)” value ([1]; 400 mg QD, n = 6) was 4 (66.7) subjects (%) and the “Related TEAEs, number of subjects (%)” value ([1]; 400 mg QD, n = 6) was 4 (66.7) subjects (%). For the same compound, the “Deaths, number of subjects (%)” value ([1]; 600 mg QD, n = 6) was 0 subjects (%), the “Mild TEAEs, number of subjects” value ([1]; both, human, in vivo, 14 days) was 12 subjects and the “Moderate TEAEs, number of subjects” value ([1]; both, human, in vivo, 14 days) was 1 subjects. The “TEAEs mild and transient” value ([1]; both, human, in vivo, 14 days) was 91%, the “TEAEs, number of subjects” value ([1]; both, human, in vivo, 14 days) was 14 subjects and the “number of TEAEs reported” value ([1]; human, in vivo) was “Forty-five”. The “Not related TEAEs, number of subjects” value ([1]; human, in vivo, 14 days) was 1 subjects, the “Related TEAEs, number of subjects” value ([1]; human, in vivo, 14 days) was 13 subjects and the “SAEs, number of subjects” value ([1]; human, in vivo, 14 days) was 0 subjects. For the same compound, the “Severe TEAEs, number of subjects” value ([1]; human, in vivo, 14 days) was 1 subjects, the “TEAEs leading to halt, number of subjects” value ([1]; human, in vivo, 14 days) was 2 subjects and the “Deaths, number of subjects” value ([1]; soticlestat total, n = 30) was 0 subjects. The KOUT typical value (CH24H; 24HC elimination rate) was 0.0215 h⁻¹, the BL (CH24H; Mean) was 96.4 ng/mL and the BL (CH24H; Median) was 84.775 ng/mL. It also gave a BL (CH24H; Range) of 31.63 to 303.45 ng/mL, an IC50 (CH24H; Mean) of 0.0128 µg/mL (≈ 0.0343 µM) and an IGAM (CH24H; Mean) of 0.83. It also gave an Imax (CH24H; Mean) of 93.5%, a KOUT (CH24H; Mean) of 0.022 h⁻¹ and an IC50 (CH24H; Median) of 0.01006 µg/mL (≈ 0.0269 µM). For the same compound, the IGAM (CH24H; Median) was 0.83, the Imax (CH24H; Median) was 93.5% and the KOUT (CH24H; Median) was 0.022 h⁻¹. The IC50 (CH24H; Range) was 0.00217 to 0.076 µg/mL, the IGAM (CH24H; Range) was 0.83-0.83 and the Imax (CH24H; Range) was 93.5-93.5%. For the same compound, the KOUT (CH24H; Range) was 0.022-0.022 1/h, the “maximum inhibition of 24HC synthesis (Imax), typical value” (CH24H; PK/PD turnover model) was 93% and the “IC50 for 24HC, typical value” (CH24H; PK/PD turnover model, soticlestat concentration) was 0.0101 µg/mL. For the same compound, the “24HC Baseline (BL): age cut-off” value (CH24H; covariate on BL) was 21.2 y, the “24HC Baseline (BL) typical value” (CH24H; final PK/OE/24HC model) was 50.5 ng/mL and the “Enzyme Occupancy: KPLBR plasma-brain rate” value (CH24H; final PK/OE/24HC model, fixed) was 0.254 h⁻¹. For the same compound, the “plasma/brain scaling parameter KPLBR (fixed)” value (CH24H; from PET enzyme occupancy model) was 0.254 h⁻¹, the Imax typical value (CH24H; maximum inhibition of 24HC) was 93.5% and the “maximum decrease in percent change from Baseline of mean AUEC24” value (plasma 24HC; 1200 mg single dose, compared with placebo) was “approximately 11.4%”. The “AUEC24 of plasma 24HC” value (plasma 24HC; Day 1, single dose 200 mg) was 1017 (27.5) h*ng/mL, the “AUEC24 of plasma 24HC” value (plasma 24HC; Day 1, single dose 600 mg) was 1311 (30.2) h*ng/mL and the “AUEC24 of plasma 24HC” value (plasma 24HC; Day 1, single dose 1200 mg) was 898.3 (16.6) h*ng/mL. For the same compound, the Emax (plasma 24HC; single dose 200 mg) was -17.7%, the Emax (plasma 24HC; single dose 600 mg) was -21.4% and the Emax (plasma 24HC; single dose 1200 mg) was -29.7%. For the same compound, the “% change from Baseline in AUEC24 of plasma 24HC” value (shortened to “% change from Baseline in AUEC24”) (plasma 24HC; single dose 200 mg) was −8.875%, the “% change from Baseline in E24 of plasma 24HC” value (“% change from Baseline in E24” below) (plasma 24HC; single dose 200 mg) was −20.29% and the “AUECt of plasma 24HC (time 0 to last sampling time point)” value (shortened to “AUECt of plasma 24HC”) (plasma 24HC; single dose 200 mg) was 1918 (26.0) h*ng/mL. For the same compound, the “E24 of plasma 24HC (observed effect at 24 hours)” value (plasma 24HC; single dose 200 mg) was 39.95 (25.4) ng/mL, the “Emax of plasma 24HC (maximum drug-induced effect)” value (plasma 24HC; single dose 200 mg) was 35.25 (24.3) ng/mL and the “Time to Emax of plasma 24HC” value (plasma 24HC; single dose 200 mg) was 48.00 (48.0-48.0) h. The “% change from Baseline in AUEC24” value (plasma 24HC; single dose 600 mg) was −8.482%, the “% change from Baseline in E24” value (plasma 24HC; single dose 600 mg) was −24.02% and the “AUECt of plasma 24HC” value (plasma 24HC; single dose 600 mg) was 2425 (31.2) h*ng/mL. For the same compound, the “E24 of plasma 24HC (observed effect at 24 hours)” value (plasma 24HC; single dose 600 mg) was 48.47 (32.0) ng/mL, the “Emax of plasma 24HC (maximum drug-induced effect)” value (plasma 24HC; single dose 600 mg) was 43.25 (35.3) ng/mL and the “Time to Emax of plasma 24HC” value (plasma 24HC; single dose 600 mg) was 48.00 (24.0-48.0) h. The “% change from Baseline in AUEC24” value (plasma 24HC; single dose 1200 mg) was −11.36%, the “% change from Baseline in E24” value (plasma 24HC; single dose 1200 mg) was −22.65% and the “AUECt of plasma 24HC” value (plasma 24HC; single dose 1200 mg) was 1627 (18.7) h*ng/mL. The “E24 of plasma 24HC (observed effect at 24 hours)” value (plasma 24HC; single dose 1200 mg) was 33.57 (19.8) ng/mL, the “Emax of plasma 24HC (maximum drug-induced effect)” value (plasma 24HC; single dose 1200 mg) was 27.30 (24.4) ng/mL and the “Time to Emax of plasma 24HC” value (plasma 24HC; single dose 1200 mg) was 48.00 (48.0-48.0) h.
